Results: article PMC2838930 (Pediatric blood & cancer, 2010)

Key:
[1] = adults with leukemia, with mitoxantrone, etoposide, cytarabine; cited from earlier work
[2] = not given; remark: listed apart in the source
[3] = Valspodar blood concentrations by radioimmunoassay; format: in vivo, pediatric patients; conditions: at some point during the infusion
[4] = during valspodar infusion, resolved after completion, all dose levels

Row | Structure (SMILES) | decrease of clearance when combined with valspodar (day 4 with valspodar versus day 1 pre-valspodar) | CL0 (baseline clearance) (in vivo) | Q (inter-compartmental clearance) (in vivo) | V1 (volume of the central compartment) (in vivo) | V2 (volume in the peripheral compartment) (in vivo) | maximum tolerated dose (MTD) in adults [1] | patients with cerebellar toxicity (ataxia or dizziness) ([2]; all dose levels, 21 evaluable, one grade 3, two grade 2, two grade 1) | patients with transient hyperbilirubinemia ([2]; all dose levels, evaluable for toxicity) | transient hyperbilirubinemia, median maximum [2, 4] | transient hyperbilirubinemia, range of maximum [2, 4] | patients with valspodar infusion-related transaminase elevations ([2]; one grade 1, two grade 2, one grade 3, self-resolved) | valspodar concentration achieved in all patients [3]
1 | COc1cc([C@@H]2c3cc4c(cc3[C@@H](O[C@@H]3O[C@@H]5CO[C@@H](C)O[C@H]5[C@H](O)[C@H]3O)[C@H]3COC(=O)[C@H]23)OCO4)cc(OC)c1O [etoposide] | 60% | 1.52 L/h | 2.38 L/h | 3.58 L | 3.82 L |  |  |  |  |  |  | 
2 | O=C1c2c(O)ccc(O)c2C(=O)c2c(NCCNCCO)ccc(NCCNCCO)c21 [mitoxantrone] |  | 16.4 L/h | 8.13 L/h |  |  |  |  |  |  |  |  | 
3 | C/C=C/C[C@@H](C)C(=O)[C@H]1C(=O)N[C@@H](C(C)C)C(=O)N(C)CC(=O)N(C)[C@@H](CC(C)C)C(=O)N[C@@H](C(C)C)C(=O)N(C)[C@@H](CC(C)C)C(=O)N[C@@H](C)C(=O)N[C@H](C)C(=O)N(C)[C@@H](CC(C)C)C(=O)N(C)[C@@H](CC(C)C)C(=O)N(C)[C@@H](C(C)C)C(=O)N1C [valspodar, Valspodar] |  |  |  |  |  | 10 mg/kg/day | five | 16 of 21 | 2 mg/dL | 0.8 to 6.6 mg/dL | Four | 1,000 ng/mL
